Patent US12371454B2, “Cyclic peptide compound having Kras inhibitory action” (priority 2019, dated 2025)
Starred links: 1 amine or outer side, 2 acyl side, 3 side chain; linkers in the order of their positions; H or OH if unused. Positions of bridges follow the written chain, without caps; N, C: chain ends. Non-standard residues stand in square brackets, D forms with d. Residues, ends and D or L forms follow the SMILES beside them. *: point of attachment. hPhe(3,5-F2-4-CF3) = N[C@@H](CCc1cc(F)c(C(F)(F)F)c(F)c1)C(=O)O; hPhe(3-Cl-4-CF3) = N[C@@H](CCc1ccc(C(F)(F)F)c(Cl)c1)C(=O)O; Phe(2-F,5-Br) = N[C@@H](Cc1cc(Br)ccc1F)C(=O)O; X71 = O=C([C@H](Cc1cc(Cl)cc(I)c1)N[*:1])[*:2]; NMeGly(cPent) = CN[C@H](C(=O)O)C1CCCC1; Phe(3-I) = N[C@@H](Cc1cccc(I)c1)C(=O)O; Pro(4,4-F2) = O=C(O)[C@@H]1CC(F)(F)CN1; NMeY = CN[C@@H](Cc1ccc(O)cc1)C(=O)O; NMeCha = CN[C@@H](CC1CCCCC1)C(=O)O; NMeChg = CN[C@H](C(=O)O)C1CCCCC1; NMeI = CC[C@H](C)[C@H](NC)C(=O)O; NMeD = CN[C@@H](CC(=O)O)C(=O)O; NMeL = CN[C@@H](CC(C)C)C(=O)O; NMeNva = CCC[C@H](NC)C(=O)O; NMeAbu = CC[C@H](NC)C(=O)O; NMeA = CN[C@@H](C)C(=O)O; NMeAib = CNC(C)(C)C(=O)O; Nle = CCCC[C@H](N)C(=O)O; Piperidide = C1CCN(*)CC1; Pra = C#CC[C@H](N)C(=O)O; Pyrrolidide = C1CCN(*)C1; Ac5c = NC1(C(=O)O)CCCC1; Aze = O=C(O)[C@@H]1CCN1; X1 = FC1(F)CN(*)CC1(F)F; Ac4c = NC1(C(=O)O)CCC1; Sar = CNCC(=O)O

Target: T1, Kras and SOS1 (biotin-tagged human Kras loaded with GDP, His-tagged human SOS1) (Homo sapiens, UniProt P01116, G12D)
T1 construct: made in house; host or cells: E. coli (stated for Kras only)
Assay: Protein-protein interaction inhibition between Kras and SOS1 (KrasGl2D-SOS PPI) using AlphaScreen
Type: binding
Details: AlphaScreen; biotin-tagged human Kras loaded with GDP, His-tagged human SOS1; read-out: KRAS G12D-SOS PPI IC50
How it was run: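 AlphaScreen format: Ni donor beads capture His-SOS1, streptavidin acceptor beads capture biotinylated Kras (E. coli-expressed, GDP-loaded post-purification). Excite 680 nm, read 520-620 nm.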

T1 sequence (P01116 1-188 isoform P01116-2 G12D): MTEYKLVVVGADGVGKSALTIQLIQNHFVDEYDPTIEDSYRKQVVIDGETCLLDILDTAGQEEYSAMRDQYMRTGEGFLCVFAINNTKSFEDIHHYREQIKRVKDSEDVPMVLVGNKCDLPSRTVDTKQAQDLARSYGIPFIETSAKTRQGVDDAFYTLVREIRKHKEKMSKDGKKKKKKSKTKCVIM

`CCCC[C@@H]1NC(=O)[C@H](Cc2cc(Cl)cc(I)c2)NC(=O)CN(C)C(=O)[C@H](Cc2ccc(OC)cc2)N(C)C(=O)[C@@H]2CCN2C(=O)[C@H](C)N(C)C(=O)[C@H]([C@@H](C)CC)NC(=O)[C@H](CC)N(C)C(=O)C[C@@H](C(=O)N2CCCCC2)N(C)C(=O)[C@H](CC(C)C)NC(=O)C(C)(C)N(C)C1=O` [Compound 1156] ([NMeAbu]I[NMeA][Aze][NMeY](Me)[Sar][X71][Nle][NMeAib]L[NMeD]-Piperidide; lactam N-11) was tested, and the IC50 was 140 nM.
Compound `CC[C@H](C)[C@@H]1NC(=O)[C@H](CC(C)C)N(C)C(=O)C[C@@H](C(=O)N2CCCCC2)N(C)C(=O)[C@H](C2CCCCC2)N(C)C(=O)[C@H](C(C)C)NC(=O)[C@@H]2CCCN2C(=O)[C@H](CCc2ccc(C(F)(F)F)c(Cl)c2)NC(=O)CN(C)C(=O)[C@H](CC2CCCCC2)N(C)C(=O)CN(C)C(=O)CN(C)C1=O` [Compound 1157] ([NMeL]I[Sar][Sar][NMeCha][Sar][hPhe(3-Cl-4-CF3)]PV[NMeChg][NMeD]-Piperidide; lactam N-11) has an IC50 of 1.6 nM.
In the case of `CCC[C@H]1C(=O)N[C@@H]([C@@H](C)CC)C(=O)N(C)CC(=O)N(C)CC(=O)N(C)[C@@H](CC2CCCCC2)C(=O)N(C)CC(=O)N[C@@H](CCc2cc(F)c(C(F)(F)F)c(F)c2)C(=O)N2CC(F)(F)C[C@H]2C(=O)NC2(CCCC2)C(=O)N(C)[C@@H](C2CCCCC2)C(=O)N(C)[C@H](C(=O)N2CCCC2)CC(=O)N1C` [Compound 1160] ([NMeNva]I[Sar][Sar][NMeCha][Sar][hPhe(3,5-F2-4-CF3)][Pro(4,4-F2)][Ac5c][NMeChg][NMeD]-Pyrrolidide; lactam N-11), the IC50 is reported as 0.42 nM.
`CC[C@H](C)[C@@H]1NC(=O)[C@H](CC(C)C)N(C)C(=O)C[C@@H](C(=O)N2CCCC2)N(C)C(=O)[C@H](C2CCCCC2)N(C)C(=O)C2(CCC2)NC(=O)[C@@H]2CC(F)(F)CN2C(=O)[C@H](CCc2ccc(C(F)(F)F)c(Cl)c2)NC(=O)CN(C)C(=O)[C@H](CC2CCCCC2)N(C)C(=O)CN(C)C(=O)CN(C)C1=O` [Compound 1163] ([NMeL]I[Sar][Sar][NMeCha][Sar][hPhe(3-Cl-4-CF3)][Pro(4,4-F2)][Ac4c][NMeChg][NMeD]-Pyrrolidide; lactam N-11) was tested, and the IC50 was 0.46 nM.
Work on `CC[C@H](C)[C@@H]1NC(=O)[C@H](CC(C)C)N(C)C(=O)C[C@@H](C(=O)N2CCCC2)N(C)C(=O)[C@H](C2CCCCC2)N(C)C(=O)C2(CCC2)NC(=O)[C@@H]2CCCN2C(=O)[C@H](CCc2cc(F)c(C(F)(F)F)c(F)c2)NC(=O)CN(C)C(=O)[C@H](CC2CCCCC2)N(C)C(=O)CN(C)C(=O)CN(C)C1=O` [Compound 1165] ([NMeL]I[Sar][Sar][NMeCha][Sar][hPhe(3,5-F2-4-CF3)]P[Ac4c][NMeChg][NMeD]-Pyrrolidide; lactam N-11) yielded an IC50 of 0.73 nM.
`CC[C@H](C)[C@@H]1NC(=O)[C@H](CC(C)C)N(C)C(=O)C[C@@H](C(=O)N2CCCC2)N(C)C(=O)[C@H](C2CCCC2)N(C)C(=O)C2(CCCC2)NC(=O)[C@@H]2CC(F)(F)CN2C(=O)[C@H](CCc2cc(F)c(C(F)(F)F)c(F)c2)NC(=O)CN(C)C(=O)[C@H](CC2CCCCC2)N(C)C(=O)CN(C)C(=O)CN(C)C1=O` [Compound 1166] ([NMeL]I[Sar][Sar][NMeCha][Sar][hPhe(3,5-F2-4-CF3)][Pro(4,4-F2)][Ac5c][NMeGly(cPent)][NMeD]-Pyrrolidide; lactam N-11) gave an IC50 of 0.47 nM.
In the case of `CC[C@H](C)[C@@H]1NC(=O)[C@H](CC(C)C)N(C)C(=O)C[C@@H](C(=O)N2CC(F)(F)C(F)(F)C2)NC(=O)[C@H]([C@@H](C)CC)N(C)C(=O)C2(CCCC2)NC(=O)[C@@H]2CCCN2C(=O)[C@H](CCc2ccc(C(F)(F)F)c(Cl)c2)NC(=O)CN(C)C(=O)[C@H](CC2CCCCC2)N(C)C(=O)CN(C)C(=O)CN(C)C1=O` [Compound 1168] ([NMeL]I[Sar][Sar][NMeCha][Sar][hPhe(3-Cl-4-CF3)]P[Ac5c][NMeI]D-X1; lactam N-11), the IC50 is reported as 100 nM.
`C#CC[C@@H]1NC(=O)[C@H](Cc2cccc(I)c2)NC(=O)CN(C)C(=O)[C@H](Cc2ccc(OC)cc2)N(C)C(=O)CN(C)C(=O)CN(C)C(=O)[C@H]([C@@H](C)CC)NC(=O)[C@H](CC(C)C)N(C)C(=O)C[C@@H](C(=O)N2CCCCC2)N(C)C(=O)[C@H](CC(C)C)NC(=O)C(C)(C)N(C)C1=O` [Compound 1169] ([NMeL]I[Sar][Sar][NMeY](Me)[Sar][Phe(3-I)][Pra][NMeAib]L[NMeD]-Piperidide; lactam N-11) was tested, and the IC50 was 53 nM.
Compound `CCCC[C@@H]1NC(=O)[C@H](Cc2cc(Br)ccc2F)NC(=O)CN(C)C(=O)[C@H](Cc2ccc(OC)cc2)N(C)C(=O)[C@@H]2CCN2C(=O)[C@H](C)N(C)C(=O)[C@H]([C@@H](C)CC)NC(=O)[C@H](CC)N(C)C(=O)C[C@@H](C(=O)N2CCCCC2)N(C)C(=O)[C@H](CC(C)C)NC(=O)C(C)(C)N(C)C1=O` [Compound 1177] ([NMeAbu]I[NMeA][Aze][NMeY](Me)[Sar][Phe(2-F,5-Br)][Nle][NMeAib]L[NMeD]-Piperidide; lactam N-11) has an IC50 of 12 nM.
